Laboratory results taken from article PMC5442318, “Hundreds of dual-stage antimalarial molecules discovered by a functional gametocyte screen” (Nature Communications, 2017).
Like-named read-outs stand apart in the source and are kept apart here.

What was measured:
[1] = system: HepG2 cells; assay: HepG2 cytotoxicity assay; type: cell-based
Summary of the method: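 Cell viability is measured by CellTiter-Glo luminescence. Signal is developed at room temperature and read 10 min after adding the reagent, with plates and reagent first equilibrated for 30 min.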

[2] = system: P. falciparum stages IV–V gametocytes; assay: Gametocytocidal ATP-depletion assay (gametocyte ATP bioluminescence); type: cell-based, Plasmodium falciparum
Summary of the method: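 Read-out is luciferase luminescence of parasite ATP (BacTiter-Glo), standing in for viability. Double-purified mature stage IV–V gametocytes, 12,500 per well, were exposed 48 h at 37 °C in low-O2 gas; screening concentration 2 μM.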

[3] = system: P. falciparum stage V female gametocytes; assay: P. falciparum female gametocyte activation assay (Pf FGAA), 24 h or 48 h preincubation, Pfs25 expression readout; type: cell-based, Plasmodium falciparum NF54; details: mean, read-out: Gametocytes mean Pf FGAA IC50
Summary of the method: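 Female activation, triggered by xanthurenic acid and cooling, was scored by imaging Cy3-labelled anti-Pfs25 female gametes after 24 h at 26 °C. Beforehand, purified NF54 stage V gametocytes had been incubated with compound for either 24 h or 48 h (37 °C, 3% O2). Values are pIC50 from full-curve regression.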

[4] = system: P. falciparum asexual blood stages; details: read-out: Pf Asexual blood stages XC50, cited from earlier work
[5] = P. falciparum female gametocytes
[6] = TCAMS asexual blood stage data, ref 1 (Gamo, F. J. et al., Nature 465, 305-310, 2010)
[7] = TCAMS data, ref 1 (Gamo et al., 2010)
[8] = P. falciparum female gametocyte activation assay

Compound | HepG2 cells mean TOX50 ([1]; HepG2 cells; mean) [µM] | Gametocytes mean ATP inhibition at 2µM [2] [%] | IC50 [3, 5] [nM] | IC50 [4, 6] [nM] | HepG2 cells mean TOX50 ([1]; mean) [µM] | Gametocytes mean ATP inhibition at 2µM (%) [2] [%] | IC50 [3] [nM] | IC50 [4, 7] [nM] | HepG2 cells mean TOX50 ([1]; mean; HepG2 cells) [µM] | IC50 [3, 8] [nM]
CCN(CC)/C(=N/C(=N)NCc1ccc(Cl)cc1Cl)NCCCCCCN/C(=N\C(=N)NCc1ccc(Cl)cc1Cl)N(CC)CC [TCMDC-131819] | 36.73 | 65.32 | 4750 | 220 |  |  |  |  |  | 
O=C(NC1CCN(CCN2CCC(c3c[nH]c4ccccc34)CC2)CC1)c1ccc(-c2ccc(C(F)(F)F)cc2)cc1 [TCMDC-138845] |  |  |  |  | 4.68 | -6.33 | 1800 | 210 |  | 
Oc1ccc2[nH]cc(C3CCN(CCCNCc4ccc(-c5ccccc5)cc4)CC3)c2c1 [TCMDC-139047] |  |  |  |  | 5.62 | -20.32 | 1440 | 730 |  | 
O=C(Nc1cccc(-c2cccc(-c3nc4cc(C(F)(F)F)ccc4[nH]3)c2)c1)Nc1ccc(F)c(F)c1F [TCMDC-133229] | 3.43 | -42.33 | 1400 | 120 |  |  |  |  |  | 
COc1ccc(N2CCN(CCCCNCc3ccc(NC(=O)c4cc(Cl)cc(Cl)c4)cc3)CC2)c(OC)c1 [TCMDC-138226] |  |  |  |  | 4.42 | 17.06 | 3110 | 250 |  | 
COc1ccc(CCNCCCCCCNCCc2ccc(-c3ccccc3)cc2)cc1OC.Cl [TCMDC-131267] | 6.90 | 51.20 | 1260 | 960 |  |  |  |  |  | 
Cc1c(Cn2nc(Cl)c(N3CCNCC3)cc2=O)cccc1NC(=O)Nc1ccc(-c2ccccc2)cc1.O=C(O)C(F)(F)F [TCMDC-141699] |  | -8.75 |  | 1380 |  |  |  |  | 4.22 | 4910
CCCCSc1c(CNCCCCCCNCc2ccc3ccccc3c2SCCCC)ccc2ccccc12.CS(=O)(=O)O [TCMDC-137825] |  |  |  |  | 2.76 | 10.43 | 970 | 1000 |  | 
OC1CCN(c2cc(-c3ccccn3)nc(-c3ccccn3)n2)CC1 [TCMDC-123786] | 14.14 | 104.88 | 1540 | 1050 |  |  |  |  |  | 
CC(C)c1ccc(CN2CCC(CNC(=O)c3cc(-c4ccccc4F)cs3)C2)cc1.O=C(O)C(F)(F)F (centres unmarked) [TCMDC-134436] | 9.14 | -11.71 | 1080 | 990 |  |  |  |  |  | 
O=C(O)C(F)(F)F.O=S(=O)(c1ccccc1)n1ccc2cc(Nc3ncnc4cc(C#C[C@H]5CCCN5)sc34)ccc21 [TCMDC-138913] |  |  |  |  | 5.50 | 75.13 | 1170 | 1070 |  | 
COc1cc2nc(N3CCC(CNC(=O)c4ccc(-c5ccc(Cl)cc5)cc4)CC3)nc(N)c2cc1OC [TCMDC-138718] |  |  |  |  | 4.22 | 12.29 | 890 | 150 |  | 
CC1(C)CC(NCCCCCCCOc2ccc(OCc3ccccc3)cc2)CC(C)(C)N1.Cl [TCMDC-138958] |  |  |  |  | 2.75 | 38.17 | 1230 | 830 |  | 
Cc1c(Cn2ncc(N3CCC(N)CC3)c(Cl)c2=O)cccc1NC(=O)Nc1ccc(-c2ccccc2)cc1.O=C(O)C(F)(F)F [TCMDC-141931] |  | 22.47 |  | 700 |  |  |  |  | 22.90 | 1090
Cc1cc(-c2ccc(CNC3Cc4ccccc4C3)cc2)ccc1S(=O)(=O)NCCN1CCCC1.O=C(O)C(F)(F)F [TCMDC-132243] | 5.31 | 16.13 | 1830 | 700 |  |  |  |  |  | 
Cl.O=S(=O)(Nc1cc2c(cc1OCCCN1CCCCC1)CCNCC2)c1ccc(-c2ccc(Cl)cc2)cc1 [TCMDC-141753] |  | -0.045 |  | 1010 |  |  |  |  | 4.37 | 2000
Cc1ccnc(NC(c2ccc(Cl)c([N+](=O)[O-])c2)c2ccc3cccnc3c2O)c1 (centres unmarked) [TCMDC-123691] | 23.45 | 95.66 | 1480 | 930 |  |  |  |  |  | 
Cc1cc(N)c2cc(NC(=O)/C=C/c3ccc([N+](=O)[O-])cc3)ccc2n1 [TCMDC-139335] |  |  |  |  | 5.37 | -7.69 | 2690 | 670 |  | 

Compound | HepG2 cells mean TOX50 ([1]; HepG2 cells; mean) [µM] | Gametocytes mean ATP inhibition at 2µM [2] [%] | IC50 [3, 5] [nM] | IC50 [4, 6] [nM] | HepG2 cells mean TOX50 ([1]; mean) [µM] | Gametocytes mean ATP inhibition at 2µM (%) [2] [%] | IC50 [3] [nM] | IC50 [4, 7] [nM] | HepG2 cells mean TOX50 ([1]; mean; HepG2 cells) [µM] | IC50 [3, 8] [nM]
CS(=O)(=O)O.FC(F)(F)COc1ccc(CNCCCCCCNCc2ccc(OCC(F)(F)F)c3ccccc23)c2ccccc12 [TCMDC-137853] |  |  |  |  | 2.46 | 94.02 | 630 | 400 |  | 
COc1cccc(OC)c1CN1CCC(N(C)CCCCCCCCCN2CCC(OC(=O)Nc3ccccc3-c3ccccc3)CC2)CC1 [TCMDC-134690] | 1.91 | 15.06 | 1310 | 320 |  |  |  |  |  | 
CN(C)CCNCc1ccc(-c2ccc3c(Nc4ccc(Cl)cc4F)ccnc3c2)o1 [TCMDC-138391] |  |  |  |  | 0.89 | 2.24 | 1710 | 210 |  | 
O=C(c1ccc([N+](=O)[O-])o1)N1CCC(Cc2ccc(C(F)(F)F)cc2)CC1 [TCMDC-124805] | 27.05 | 93.11 | 160 | 170 |  |  |  |  |  | 
NCCCNc1nc(Nc2ccc(C(F)(F)F)cc2F)c2c(=O)[nH]ccc2n1.O=C(O)C(F)(F)F [TCMDC-135056] | 9.30 | -14.04 | 1600 | 1050 |  |  |  |  |  | 
CN(C)CCNCc1ccc(-c2ccc3c(Nc4ccc(Oc5ccccc5)cc4)ccnc3c2)o1 [TCMDC-138399] |  |  |  |  | 5.69 | 14.30 | 1560 | 280 |  | 
CC(C)(C)c1ccc(CN2CCC(CNC(=O)c3cc(-c4cccc(C(F)(F)F)c4)cs3)C2)cc1.O=C(O)C(F)(F)F (centres unmarked) [TCMDC-134442] | 6.39 | -16.04 | 950 | 1030 |  |  |  |  |  | 
COC(=O)c1ccc(-c2ccc(-c3cccnc3)cc2C)cc1 [TCMDC-139074] |  |  |  |  | 3.63 | 88.85 | 590 | 660 |  | 
Fc1ccc2[nH]c(-c3cccc(-c4ccc(CN5CCC(CCN6CCCCC6)CC5)cc4)c3)nc2c1.O=C(O)C(F)(F)F [TCMDC-133940] | 4.79 | -4.48 | 1880 | 140 |  |  |  |  |  | 
c1cc(Nc2nc(-c3ccc(-c4csc(Nc5ccncc5)n4)cc3)cs2)ccn1 [TCMDC-139725] |  |  |  |  | 2.26 | 93.92 | 30 | 120 |  | 
CN1CCN(CCCN(Cc2cccc(-c3ccc(CNC4CCCC4)cc3)c2)C(=O)/C=C/c2ccccc2)CC1.O=C(O)C(F)(F)F [TCMDC-140544] |  |  |  |  | 7.70 | 0.64 | 1360 | 750 |  | 
CCCCCCCN1CC[C@@H](CCCc2ccnc3ccc(OCCN4CCNCC4)cc23)[C@@H](CC)C1.Cl [TCMDC-139817] |  |  |  |  | 4.90 | 8.71 | 1860 | 770 |  | 
O=S(=O)(Nc1cccc(F)c1CNCc1ccccn1)c1ccc(Cl)c(Cl)c1 [TCMDC-132598] | 20.42 | 51.32 | 1360 | 890 |  |  |  |  |  | 
CN1CCN(CCCNCc2cccc(Nc3nccc(Nc4ccc(Oc5ccccc5)cc4)n3)c2)CC1 [TCMDC-138616] |  |  |  |  | 4.68 | 13.07 | 980 | 760 |  | 
COc1ccc2c(OC)c(CNCCCCCCNCc3ccc4cc(OC)ccc4c3OC)ccc2c1.CS(=O)(=O)O [TCMDC-137953] |  |  |  |  | 2.11 | 2.77 | 1000 | 920 |  | 
CCCCN(CCCC)/C(=N/C(=N)NCc1ccc(Cl)c(Cl)c1)NCCCCCCN/C(=N\C(=N)NCc1ccc(Cl)c(Cl)c1)N(CCCC)CCCC [TCMDC-131821] | 13.96 | 63.54 | 2510 | 400 |  |  |  |  |  | 
COc1cccc(OC)c1CN1CCC(N(C)CCCCCCCCN2CCC(OC(=O)Nc3ccccc3-c3ccccc3)CC2)CC1 [TCMDC-134684] | 1.93 | 22.14 | 2260 | 460 |  |  |  |  |  | 
